Experiments:
[1] = system: Diabrotica virgifera virgifera and Agriotes lineatus; test: Field test, lodge rate, clothianidin in-furrow, seed treated with thiuram and cyprosulfamide (Example 9); type: in vivo; settings: clothianidin 50 g/ha in-furrow spray 125 L/ha, 165 days after application, example in present tense
From the text: A chemical fertilizer (N:P:K=15:15:15) is applied to the soil surface of a cultivated land at 300 kg/ha, and the cultivated land is then plowed. 7 days after fertilization, for suppressing generation of weeds, the soil surface of the whole cultivated land is spray-treated with a mixed liquid containing thiencarbazone-methyl and isoxaflutole, each of which being a herbicide, at 150 L/ha so that the application amounts of thiencarbazone-methyl and isoxaflutole are 9.2 g/ha and 23 g/ha. 21 days after fertilization, using a pneumatic seeder (disk furrow opener) equipped with a power sprayer, a cultivated land is ditched at intervals of 75 cm to a depth of 5 cm from the soil surface, and the furrow is seeded with corn (Zea Mays; hybrid variety). The furrow is seeded at intervals of 20 cm using, as a seed of corn, one treated with thiuram and cyprosulfamide. A seeding density of corn is 70000 seeds/ha. […] 165 days after application of the aqueous suspension of clothianidin, the number of plants of corn lodged due to damage by Diabrotica virgifera virgifera and Agriotes lineatus in the furrows of the treatment section and the non-treatment section, for which the number of plants of corn germinated is investigated, is investigated, a lodge rate is calculated in accordance with the following equation, and then an average lodge rate for the four investigation sections is determined.

[2] = system: Diabrotica virgifera virgifera and Agriotes lineatus; test: Field test, corn lodged due to damage by Diabrotica virgifera virgifera and Agriotes lineatus (Example 4); type: in vivo; settings: Example section 4: clothianidin 80 g/ha, in-furrow spray of Dantop 50WG 125 L/ha, corn DKC 5143 seed treated with Maxim XL, 165 days after application; non-treatment section 23
Protocol: Ammonium phosphate (N:P:K=12:52:0) and urea (N:P:K=46:0:0), each of which being a fertilizer, were applied to the soil surface of a cultivated land at 100 kg/ha and 260 kg/ha, respectively, and the cultivated land was plowed. 24 days after fertilization, using a pneumatic seeder (disk furrow opener) equipped with a power sprayer, a cultivated land was ditched at intervals of 75 cm to a depth of 5 cm from the soil surface, and the furrow was seeded with corn (Zea Mays, variety name: DKC 5143; hybrid variety, manufactured by Monsanto). The cultivated land was seeded at intervals of 20 cm using, as a corn seed, one treated with a mixed agent of metalaxyl-M and fludioxonil (trade name: Maxim XL, manufactured by Syngenta). A seeding density of corn was 66667 seeds/ha. […] 165 days after application of the clothianidin water dispersible granule, the number of plants of corn lodged due to damage by Diabrotica virgifera virgifera and Agriotes lineatus in the furrows of the example section 4 and the non-treatment section, for which the number of plants of corn germinated was investigated, was investigated, a lodge rate was calculated in accordance with the following equation, and then an average lodge rate for the four investigation sections was determined. […]

In the case of `CN/C(=N\[N+](=O)[O-])NCc1cnc(Cl)s1` [clothianidin], the “Lodge rate compared to non-treatment section” value [1] is reported as “low lodge rate as compared to the non-treatment section” and the “Lodge rate (%)” value [2] is reported as 4%.

— US9265189B2, “Method for reducing damage by harmful organisms in corn cultivation” (SUMITOMO CHEMICAL COMPANY, LIMITED, priority 2012, dated 2016)
